Assay results from US10233157B2, “SIK inhibitor for use in a method of treating an inflammatory and/or immune disorder” (Dana-Farber Cancer Institute, Inc., priority 2012, dated 2019).

Legend:
[1] = test system: CRTC3; experiment: CRTC3 nuclear translocation (immunofluorescence, live imaging); assay type: cell-based; settings: WT CRTC3
From the text: FIGS. 15A to 15C. SIK inhibitors induce the dephosphorylation of CRTC3 at Ser62, Ser162, Ser329 and Ser370 and its translocation to the nucleus. (FIG. 15A) HEK293 cells were transfected with FLAG-CRTC2, FLAG-CRTC3 or FLG-CRTC3[S162A]. Aliquots of the cell extracts were subjected to SDS-PAGE and immunoblotting using an antibody that recognizes CRTC2 phosphorylated at Ser171. […] (FIG. 15B) HEK293 cells were transfected with FLAG-CRTC3, FLAG-CRTC3[S62A/S162A/S329A/S370A] (termed CRTC3-4A) or with empty vector (FLAG-ev). […]. (FIG. 15C) Inhibition of SIKs promotes the translocation of endogenous CRTC3 to the nucleus. […].
RAW264.7 cells were grown on glass coverslips and treated with inhibitors for 1 h. Cells were then fixed for 10 min in 3.7% paraformaldehyde, permeabilized for 5 min using 0.1% Triton X-100 in PBS and blocked for 45 min using 3% BSA in PBS. Cells were stained with anti-CRTC3 (Abcam 1:200) and anti-α-tubulin (Santa Cruz 1:500) followed by anti-rabbit-alexa488 and anti-mouse-alexa594 (Invitrogen 1:500), respectively. Antibodies were diluted in blocking buffer and incubated with the cells for 45 min. […] Images were recorded every 30 s for 1.5 min prior to the addition of drug after which cells were imaged for a further 60 min.

[2] = test system: protein kinases that possess a threonine residue at the gatekeeper site (Src, Lck, Yes, BTK, FGF and Ephrin receptors); experiment: Kinase profiling, kinases with threonine at the gatekeeper site; assay type: biochemical; settings: kinase panel; 1 μM KIN112, 0.1 μM HG-9-91-01
Experimental: Recombinant SIK1, SIK2, SIK3 were expressed as GST-fusion proteins in HEK293 cells and purified on a glutathione-Sepharose column. […] FLAG-CRTC3 was immunoprecipitated using anti-FLAG M2 agarose, washed in kinase buffer (50 mM Tris/HCl pH 7.4, 10 mM Mg acetate, 0.1 mM EGTA, 2 mM DTT) and reactions initiated by adding 4 U/ml recombinant kinase with 0.1 mM ATP (specific activity 3000 cpm/pmol). Phosphorylation of CRTC3 was monitored by autoradiography as well as immunoblotting using phosphospecific antibodies raised against Ser162, Ser329 and Ser370. […] Kinase profiling was performed as previously described (7) and performed by the International Centre for Kinase Profiling (www.kinase-screen.mrc.ac.uk).

[3] = test system: STAT3; experiment: Immunoblotting of STAT3 phosphorylation in LPS-stimulated macrophages; assay type: cell-based, mouse
Experimental: (§1) FIGS. 2A to 2G. […] As in A except that cells were stimulated for 2 h with LPS.
(§2) Bone-marrow derived macrophages were differentiated for 7 days in DMEM supplemented with 5 ng/ml recombinant M-CSF (R&D systems), 2 mM glutamine, 10% foetal calf serum, penicillin and streptomycin.
Cells were rinsed in ice-cold PBS and extracted in lysis buffer (50 mM Tris/HCl pH 7.4, 1 mM EDTA, 1 mM EGTA, 50 mM NaF, 5 mM sodium pyrophosphate, 10 mM sodium α-glycerol 1-phosphate, 1 mM dithiothreitol, 1 mM sodium orthovanadate, 0.27 M sucrose, 1% (v/v) Triton X-100, 1 μg/ml aprotinin, 1 μg/ml leupeptin and 1 mM phenylmethylsulphonyl fluoride). Cell extracts were clarified by centrifugation at 14000×g for 10 min at 4° C. and protein concentrations determined using the Bradford assay. To detect proteins in cell lysates, 20 μg of protein extract was separated by SDS-PAGE. After transfer to PVDF membranes, proteins were detected by immunoblotting and visualized by treating the blots with ECL (Amersham) followed by autoradiography. The antibody recognizing CREB phosphorylated at Ser133 was from Cell Signalling Technology and the one detecting α-tubulin was obtained from Sigma.

[4] = test system: IL-10−/− macrophages; experiment: Cytokine production in IL-10−/− macrophages; assay type: cell-based, mouse; settings: all TLR ligands examined other than LPS
Experimental: as §1
IL-10^−/− mice on a C57Bl/6 background were purchased from The Jackson Laboratory, Maine, USA. C57Bl/6, and IL-10^−/− mice were bred at the University of Dundee under specific pathogen-free conditions in accordance with European Union regulations. Work was approved by local ethical review and was performed with a UK Home Office project license.
as §2
Following stimulation with ligands, the cell culture medium was removed, clarified by centrifugation for 10 min at 14000×g and the concentration of TNFα, IL-6, IL-10, IL-12p40, and RANTES were measured using the Bio-Plex Pro Assay system from Bio-Rad. IFNβ was measured using an ELISA kit from R&D Systems according to the manufacturers' instructions.

Row | SMILES | CRTC3 nuclear translocation [1] | inhibition of protein kinases with a threonine residue at the gatekeeper site [2] | LPS-stimulated phosphorylation of STAT3 ([3]; 2 μM MRT67307) | phosphorylation of STAT3 ([3]; LPS-stimulated macrophages from IL-10−/− mice, presence or absence of compound) | secretion of pro-inflammatory cytokines [4]
1 | COc1ccc(N(C(=O)Nc2c(C)cccc2C)c2cc(Nc3ccc(N4CCN(C)CC4)cc3)ncn2)c(OC)c1 [HG-9-91-01, 1-(2,4-dimethoxyphenyl)-3-(2,6-dimethylphenyl)-1-(6-((4-(4-methylpiperazin-1-yl)phenyl)amino)pyrimidin-4-yl)urea] | translocates to the nucleus | inhibited |  |  | 
2 | O=C(NCCCNc1nc(Nc2cccc(CN3CCOCC3)c2)ncc1C1CC1)C1CCC1 [MRT67307] |  |  | increased | no phosphorylation of STAT3 occurred | failed to suppress
